We go through seven molecules from patent publication US8933040B2, “Selective glycosidase inhibitors and uses thereof” (priority 2010, dated 2015).

The target in one experiment is O-GlcNAcase (Rattus norvegicus (Rat), UniProt Q8VIJ5). Kind of experiment: Cell-based ELISA for cellular activity of O-GlcNAcase inhibitors (O-GlcNAcylated protein, RL-2 antibody). From the text:
Assay for Determination of Cellular Activity for Compounds that Inhibit O-GlcNAcase Activity
Inhibition of O-GlcNAcase, which removes O-GlcNAc from cellular proteins, results in an increase in the level of O-GlcNAcylated protein in cells. An increase in O-GlcNAcylated protein can be measured by an antibody, such as RL-2, that binds to O-GlcNAcylated protein. The amount of O-GlcNAcylated protein:RL2 antibody interaction can be measured by enzyme linked immunosorbant assay (ELISA) procedures.
A variety of tissue culture cell lines, expressing endogenous levels of O-GlcNAcase, can be utilized; examples include rat PC-12, and human U-87, or SK—N—SH cells. Rat PC-12 cells were plated in 96-well plates with approximately 10,000 cells/well. Compounds to be tested were dissolved in DMSO, either 2 or 10 mM stock solution, and then diluted with DMSO and water in a two-step process using a Tecan workstation. […] If desired, the total protein concentration of samples was determined using 20 μL of the sample using the BCA method. […]
The values for a four parameter logistic curve fit of the data were determined, with the inflection point of the curve being the potency value for the test compound.
On the technique in general: In an ELISA, binding on a coated surface is turned into a signal by an enzyme label.

For a further experiment, the target named is human O-GlcNAcase (Homo sapiens (Human), UniProt O60502). Kind of experiment: Fluorescence-based assay for determination of KI values for inhibition of O-GlcNAcase activity. The experiment is classed as biochemical. The method, then:
Assay for Determination of KI Values for Inhibition of O-GlcNAcase Activity
Experimental Procedure for Kinetic Analyses:
Enzymatic reactions were carried out in a reaction containing 50 mM NaH2PO4, 100 mM NaCl and 0.1% BSA (pH 7.0) using 2 mM 4-Methylumbelliferyl N-acetyl-β-D-glucosaminide dihydrate (Sigma M2133) dissolved in ddH2O, as a substrate. The amount of purified human O-GlcNAcase enzyme used in the reaction was 0.7 nM. Test compound of varying concentrations was added to the enzyme prior to initiation of the reaction. The reaction was performed at room temperature in a 96-well plate and was initiated with the addition of substrate. […] The slope of product production was determined for each concentration of compound tested and plotted, using standard curve fitting algorithms for sigmoidal dose response curves. The values for a four parameter logistic curve fit of the data were determined.

The mark [1] stands for this setting: purified human O-GlcNAcase 0.7 nM, 2 mM 4-Methylumbelliferyl N-acetyl-β-D-glucosaminide, pH 7.0, Cheng-Prusoff, read-out: Fluorescence-based hOGA Ki.

The structures appear in SMILES notation. pEC50, pKi: −log10 of the molar value. Read-outs that look alike come from different tables or passages of the source.

Sequence of human O-GlcNAcase (O60502 whole entry): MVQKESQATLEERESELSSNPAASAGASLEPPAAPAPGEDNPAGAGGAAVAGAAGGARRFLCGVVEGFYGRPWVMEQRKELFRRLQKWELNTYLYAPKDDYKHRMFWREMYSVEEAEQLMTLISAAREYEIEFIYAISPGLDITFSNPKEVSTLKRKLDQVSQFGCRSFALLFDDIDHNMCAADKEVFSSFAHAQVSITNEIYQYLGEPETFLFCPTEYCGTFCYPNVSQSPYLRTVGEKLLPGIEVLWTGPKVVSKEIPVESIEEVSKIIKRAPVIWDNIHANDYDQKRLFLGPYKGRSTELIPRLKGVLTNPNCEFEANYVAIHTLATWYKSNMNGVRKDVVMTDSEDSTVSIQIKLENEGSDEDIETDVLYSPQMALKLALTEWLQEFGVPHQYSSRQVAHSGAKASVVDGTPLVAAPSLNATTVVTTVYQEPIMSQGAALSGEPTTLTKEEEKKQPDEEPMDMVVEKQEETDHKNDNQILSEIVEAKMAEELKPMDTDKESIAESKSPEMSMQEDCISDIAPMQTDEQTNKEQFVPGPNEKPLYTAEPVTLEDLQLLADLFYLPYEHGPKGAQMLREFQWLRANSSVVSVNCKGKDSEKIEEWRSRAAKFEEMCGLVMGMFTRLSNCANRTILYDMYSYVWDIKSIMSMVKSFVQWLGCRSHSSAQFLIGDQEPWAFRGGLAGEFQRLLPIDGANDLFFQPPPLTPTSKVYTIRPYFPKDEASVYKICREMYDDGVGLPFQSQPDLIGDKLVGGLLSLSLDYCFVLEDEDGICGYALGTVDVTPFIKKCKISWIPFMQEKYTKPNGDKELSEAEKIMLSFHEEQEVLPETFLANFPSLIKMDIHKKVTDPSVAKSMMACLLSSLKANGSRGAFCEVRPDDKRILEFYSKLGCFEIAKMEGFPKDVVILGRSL
Sequence of O-GlcNAcase (Q8VIJ5 whole entry): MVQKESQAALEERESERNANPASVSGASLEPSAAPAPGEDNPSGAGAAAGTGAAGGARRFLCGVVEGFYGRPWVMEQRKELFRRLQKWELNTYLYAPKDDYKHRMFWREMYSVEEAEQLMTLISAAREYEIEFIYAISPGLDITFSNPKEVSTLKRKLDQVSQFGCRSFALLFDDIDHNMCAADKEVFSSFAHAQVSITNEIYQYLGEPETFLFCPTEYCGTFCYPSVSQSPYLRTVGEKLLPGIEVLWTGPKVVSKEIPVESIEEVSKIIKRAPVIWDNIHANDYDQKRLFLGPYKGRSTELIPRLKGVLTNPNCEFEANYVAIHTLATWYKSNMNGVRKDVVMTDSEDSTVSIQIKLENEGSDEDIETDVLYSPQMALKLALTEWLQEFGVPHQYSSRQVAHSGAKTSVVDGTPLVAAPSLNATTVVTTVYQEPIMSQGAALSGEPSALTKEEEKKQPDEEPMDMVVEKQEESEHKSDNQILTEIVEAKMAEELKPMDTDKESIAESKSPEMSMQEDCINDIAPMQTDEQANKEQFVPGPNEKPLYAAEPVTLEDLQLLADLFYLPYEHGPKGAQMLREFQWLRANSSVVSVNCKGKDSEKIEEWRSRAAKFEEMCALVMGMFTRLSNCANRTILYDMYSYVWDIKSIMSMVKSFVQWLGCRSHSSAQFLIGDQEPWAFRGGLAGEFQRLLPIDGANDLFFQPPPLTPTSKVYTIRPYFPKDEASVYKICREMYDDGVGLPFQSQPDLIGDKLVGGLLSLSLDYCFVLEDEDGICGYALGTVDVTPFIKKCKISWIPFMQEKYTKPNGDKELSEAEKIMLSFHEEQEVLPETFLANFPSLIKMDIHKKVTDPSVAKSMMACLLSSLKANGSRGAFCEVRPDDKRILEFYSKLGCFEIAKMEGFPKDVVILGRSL

For the molecule `OC[C@H]1O[C@@H]2SC(N3CCC3)=N[C@@H]2[C@@H](O)C1O` (stereo in doubt) [Example 1, (3aR,5R,6S,7R,7aR)-2-(azetidin-1-yl)-5-(hydroxymethyl)-5,6,7,7a-tetrahydro-3aH-pyrano[3,2-d]thiazole-6,7-diol], the pEC50 (commonly the EC50 on a negative log10 scale, so that one unit is a factor of ten) on O-GlcNAcase is 7.55. For the same molecule, the pKi (commonly the negative decadic logarithm of the Ki, by convention in mol/L) on human O-GlcNAcase is 8.48. Regarding `OC[C@H]1O[C@@H]2SC(N3CC(F)C3)=N[C@@H]2[C@@H](O)[C@@H]1O` [Example 3, (3aR,5R,6S,7R,7aR)-2-(3-fluoroazetidin-1-yl)-5-(hydroxymethyl)-5,6,7,7a-tetrahydro-3aH-pyrano[3,2-d]thiazole-6,7-diol], the pKi at human O-GlcNAcase (setting [1]) is 7.52. As to `COC1CN(C2=N[C@@H]3[C@@H](O)[C@H](O)[C@@H](CO)O[C@@H]3S2)C1` [Example 5, (3aR,5R,6S,7R,7aR)-5-(hydroxymethyl)-2-(3-methoxyazetidin-1-yl)-5,6,7,7a-tetrahydro-3aH-pyrano[3,2-d]thiazole-6,7-diol], on human O-GlcNAcase (setting [1]), the pKi was 6.85.

In the case of `OC[C@H]1O[C@@H]2SC(N3CCCC3)=N[C@@H]2[C@@H](O)[C@@H]1O` [Example 7, (3aR,5R,6S,7R,7aR)-5-(hydroxymethyl)-2-(pyrrolidin-1-yl)-5,6,7,7a-tetrahydro-3aH-pyrano[3,2-d]thiazole-6,7-diol], the pEC50 on O-GlcNAcase (Rat PC-12 cells, 24 h treatment, increase in O-GlcNAcylated protein detected with RL-2 antibody, read-out: Cell-based ELISA EC50) is 6.78. The negative-log Ki (pKi) at human O-GlcNAcase (setting [1]) was 7.89. `OC[C@H]1O[C@@H]2SC(N3CCOCC3)=N[C@@H]2[C@@H](O)[C@@H]1O` [Example 14, (3aR,5R,6S,7R,7aR)-5-(hydroxymethyl)-2-morpholino-5,6,7,7a-tetrahydro-3aH-pyrano[3,2-d]thiazole-6,7-diol]: the pKi at human O-GlcNAcase (setting [1]) was 6.54. Regarding `O[C@H]1[C@H](O)[C@@H](CNC2CC2)O[C@@H]2SC(N3CCC3)=N[C@H]12` [Example 16, (3aR,5R,6S,7R,7aR)-2-(azetidin-1-yl)-5-((cyclopropylamino)methyl)-5,6,7,7a-tetrahydro-3aH-pyrano[3,2-d]thiazole-6,7-diol], at human O-GlcNAcase (setting [1]), the pKi is 7.00. In the case of `CN(C)C(=O)OC[C@H]1O[C@@H]2SC(N3CCC3)=N[C@@H]2[C@@H](O)[C@@H]1O` [Example 18, ((3aR,5R,6S,7R,7aR)-2-(azetidin-1-yl)-6,7-dihydroxy-5,6,7,7a-tetrahydro-3aH-pyrano[3,2-d]thiazol-5-yl)methyl dimethylcarbamate], the pKi at human O-GlcNAcase (setting [1]) was 6.46.
